From ChEMBL document CHEMBL1124011, “Retinobenzoic acids. 1. Structure-activity relationships of aromatic amides with retinoidal activity” (1988)
Calls of active or inactive are those of the source. The rule behind the calls is not given here.

Legend:
[1] = Ratio of the ED50 of compound to that of ED50 of retinoic acid, expressed as relative activity; format: functional
[2] = test system: Panel leukemia (Carcinoma cell lines); assay: Effective dose for differentiation -inducing activity against human promyelocytic leukemia cells; format: functional; details: read-out: ED50 (the source's name)
[3] = test system: Panel leukemia (Carcinoma cell lines); assay: Effective dose for differentiation-inducing activity against human promyelocytic leukemia cells; format: functional, cell-based

EC50 [2] [nM] | Structure (SMILES) | Ratio [1] | ED50 [3]
350 | Cc1cc2c(cc1NC(=O)c1ccc(C(=O)O)cc1)C(C)(C)CCC2(C)C | 0.006 | –
– | O=C(O)c1ccc(C(=O)Nc2cccc(-c3ccccc3)c2)cc1 | – | inactive
800 | CC1(C)CCOc2ccc(C(=O)Nc3ccc(C(=O)O)cc3)cc21 | 0.0035 | –
2.1 | CC(C)c1ccc(NC(=O)c2ccc(C(=O)O)cc2)cc1C(C)C | 1.4 | –
68 | CC(C)c1ccc(C(=O)Nc2ccc(C(=O)O)cc2)cc1C(C)C | 0.04 | –
> 10000 | O=C(O)c1ccc(C(=O)Nc2ccc3c(c2)C2CCC3CC2)cc1 | < 0.001 | –
> 1000 | CC1(C)CCC(C)(C)c2c(NC(=O)c3ccc(C(=O)O)cc3)cccc21 | < 0.0001 | –
75 | CC1(C)CCOc2c(Cl)cc(C(=O)Nc3ccc(C(=O)O)cc3)cc21 | 0.037 | –
> 10000 | CC(C)(C)c1ccc(NC(=O)c2ccc(C(=O)O)cc2)cc1 | < 0.001 | –
– | O=C(O)c1ccc(NC(=O)c2ccccc2)cc1 | – | inactive
260 | CCc1ccc(NC(=O)c2ccc(C(=O)O)cc2)cc1CC | 0.0077 | –
910 | CC(C)c1ccc(NC(=O)c2ccc(C(=O)O)cc2)cc1 | 9.8 | –
> 10000 | CC1(C)CCC(C)(C)c2cc([N+](=O)[O-])c(NC(=O)c3ccc(C(=O)O)cc3)cc21 | < 0.001 | –
68 | CC12CCC(C)(CC1)c1cc(NC(=O)c3ccc(C(=O)O)cc3)ccc12 | 0.059 | –
36 | CC(C)(C)c1cc(NC(=O)c2ccc(C(=O)O)cc2)cc(C(C)(C)C)c1 | 0.15 | –
0.79 | CC1(C)CCC(C)(C)c2cc(NC(=O)c3ccc(C(=O)O)cc3)ccc21 [TAMIBAROTENE] | 3.5 | –
– | O=C(O)c1ccc(C(=O)Nc2ccccc2)cc1 | – | inactive
> 10000 | CC(C)(C)c1cccc(C(=O)Nc2ccc(C(=O)O)cc2)c1 | < 0.001 | –
– | O=C(O)c1ccc(C(=O)Nc2cccc3c2CCCC3)cc1 | – | inactive
– | CCc1cccc(NC(=O)c2ccc(C(=O)O)cc2)c1 | – | inactive
2.4 | CC1=C(/C=C/C(C)=C/C=C/C(C)=C/C(=O)O)C(C)(C)CCC1 [TRETINOIN] | 1 | –
680 | CC(C)c1cccc(NC(=O)c2ccc(C(=O)O)cc2)c1 | 1.3 | –
> 1000 | O=C(O)c1ccc(C(=O)Nc2cccc(C3CCCCC3)c2)cc1 | < 0.0001 | –

EC50 [2] [nM] | Structure (SMILES) | Ratio [1] | ED50 [3]
560 | CC1(C)CCC(C)(C)c2cc(NC(=O)c3ccc(C(=O)O)cc3)c(N)cc21 | 0.011 | –
48 | CC(C)(C)c1cc(C(=O)Nc2ccc(C(=O)O)cc2)cc(C(C)(C)C)c1 | 0.056 | –
– | CC(C)c1cccc(C(C)C)c1NC(=O)c1ccc(C(=O)O)cc1 | – | inactive
> 1000 | CN(C(=O)c1ccc(C(=O)O)cc1)c1ccc2c(c1)C(C)(C)CCC2(C)C | < 0.0001 | –
> 1000 | CC1(C)CCC(C)(C)c2cc(NC(=O)c3ccc(C(=O)O)cc3)c(Br)cc21 | < 0.0001 | –
– | CC1(C)CCS(=O)(=O)c2ccc(C(=O)Nc3ccc(C(=O)O)cc3)cc21 | – | inactive
– | O=C(O)c1ccc(C(=O)Nc2cccc(Br)c2)cc1 | – | inactive
– | CC(C)c1ccc(C(C)C)c(NC(=O)c2ccc(C(=O)O)cc2)c1 | – | inactive
– | CC(C)(C)c1cc(C(C)(C)C)c(NC(=O)c2ccc(C(=O)O)cc2)c(C(C)(C)C)c1 | – | inactive
38 | CC(C)c1cc(NC(=O)c2ccc(C(=O)O)cc2)cc(C(C)C)c1 | 0.042 | –
0.34 | CC1(C)CCC(C)(C)c2cc(C(=O)Nc3ccc(C(=O)O)cc3)ccc21 | 7.2 | –
– | O=C(O)c1ccc(C(=O)Nc2cccc3ccccc23)cc1 | – | inactive
– | Cc1cccc(NC(=O)c2ccc(C(=O)O)cc2)c1 | – | inactive
– | CN(C)c1cccc(NC(=O)c2ccc(C(=O)O)cc2)c1 | – | inactive
> 10000 | CC(C)(C)c1ccc(C(=O)Nc2ccc(C(=O)O)cc2)cc1 | < 0.001 | –
> 1000 | CN(C(=O)c1ccc2c(c1)C(C)(C)CCC2(C)C)c1ccc(C(=O)O)cc1 | < 0.0001 | –
– | O=C(O)c1ccc(C(=O)Nc2ccc3ccccc3c2)cc1 | 3.5 | inactive
– | CC(C)c1ccc(NC(=O)c2ccc(C(=O)O)cc2)c(C(C)C)c1 | – | inactive
> 1000 | CC1(C)CCOc2ccc(NC(=O)c3ccc(C(=O)O)cc3)cc21 | < 0.0001 | –
– | CC(C)c1ccccc1NC(=O)c1ccc(C(=O)O)cc1 | – | inactive
700 | CC(C)(C)c1cccc(NC(=O)c2ccc(C(=O)O)cc2)c1 | 3.2 | –
73 | CC1(C)CCSc2ccc(NC(=O)c3ccc(C(=O)O)cc3)cc21 | 0.051 | –
